Assay [1] addresses T1, Adenosine receptor A1 (Rattus norvegicus) (UniProt P25099).
T1 sequence (whole entry): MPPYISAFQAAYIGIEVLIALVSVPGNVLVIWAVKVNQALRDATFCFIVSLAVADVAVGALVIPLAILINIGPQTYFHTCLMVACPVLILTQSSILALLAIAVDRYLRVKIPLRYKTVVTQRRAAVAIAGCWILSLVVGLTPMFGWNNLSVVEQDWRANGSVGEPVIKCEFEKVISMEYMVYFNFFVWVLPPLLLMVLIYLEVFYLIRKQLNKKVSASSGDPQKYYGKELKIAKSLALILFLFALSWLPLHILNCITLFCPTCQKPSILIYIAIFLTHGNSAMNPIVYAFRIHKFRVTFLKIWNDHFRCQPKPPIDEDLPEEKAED
The experiment in a line: Displacement of [3H]DPCPX from adenosine A1 receptor in Wistar rat cerebral cortex at 10 uM by liquid scintillation counting relative to control. It counts as tissue-based. (Displacement assays read how much labelled ligand stays bound in the presence of the test substance.)

The target of assay [2] is T1, Adenosine receptor A1 (Rattus norvegicus). The experiment in a line: Displacement of [3H]CCPA adenosine A1 receptor in Wistar rat cerebral cortex at 10 uM by liquid scintillation counting relative to control. It is filed as tissue-based.
For assay [3], the target named is T2, Adenosine receptor A2a (Homo sapiens, UniProt P29274). The experiment in a line: Displacement of [3H]ZM241385 from human recombinant adenosine A2A receptor expressed in CHO cells at 10 uM by liquid scintillation counting relative to control. It counts as cell-based.
T2 sequence (P29274 whole entry): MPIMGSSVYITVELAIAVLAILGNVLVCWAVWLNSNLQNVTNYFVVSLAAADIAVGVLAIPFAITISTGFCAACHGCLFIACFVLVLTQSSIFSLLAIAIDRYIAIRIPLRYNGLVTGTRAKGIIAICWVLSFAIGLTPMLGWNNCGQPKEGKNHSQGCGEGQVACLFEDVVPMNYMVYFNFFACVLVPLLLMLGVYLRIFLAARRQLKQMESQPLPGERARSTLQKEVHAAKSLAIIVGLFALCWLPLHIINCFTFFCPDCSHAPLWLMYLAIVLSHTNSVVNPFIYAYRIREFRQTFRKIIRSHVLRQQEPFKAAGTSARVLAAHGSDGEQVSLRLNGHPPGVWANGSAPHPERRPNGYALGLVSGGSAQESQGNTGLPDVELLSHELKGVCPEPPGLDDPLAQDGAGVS
Assay [4] deals with T2, Adenosine receptor A2a. In words: Displacement of [3H]CGS21680 from human recombinant adenosine A2A receptor expressed in CHO cells at 10 uM by liquid scintillation counting relative to control. It is filed as cell-based.
Assay [5] concerns the target T3, Adenosine receptor A3 (Homo sapiens) (UniProt P0DMS8).
T3 sequence (whole entry): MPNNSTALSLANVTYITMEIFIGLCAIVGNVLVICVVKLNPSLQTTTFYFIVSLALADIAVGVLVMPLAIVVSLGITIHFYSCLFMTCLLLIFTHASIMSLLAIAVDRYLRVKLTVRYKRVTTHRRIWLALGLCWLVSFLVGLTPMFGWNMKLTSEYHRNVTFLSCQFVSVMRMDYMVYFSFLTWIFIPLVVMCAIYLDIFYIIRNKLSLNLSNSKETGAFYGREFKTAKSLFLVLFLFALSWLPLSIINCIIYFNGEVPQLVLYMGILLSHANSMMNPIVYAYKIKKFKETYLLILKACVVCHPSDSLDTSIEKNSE
The experiment in a line: Displacement of [3H]NECA from human recombinant adenosine A3 receptor expressed in CHO cells at 10 uM by liquid scintillation counting relative to control. It is filed as cell-based.

Assay [6] has as its target T4, Adenosine receptor A1 (Rattus norvegicus, UniProt P25099).
T4 sequence (P25099 whole entry): T1 sequence (whole entry)
The experiment in a line: Displacement of [3H]DPCPX from adenosine A1 receptor in Wistar rat cerebral cortex by liquid scintillation counting. It counts as tissue-based.

Assay [7] addresses T4, Adenosine receptor A1. In words: Displacement of [3H]CCPA from adenosine A1 receptor in Wistar rat cerebral cortex by liquid scintillation counting. It is filed as tissue-based.
Assay [8] concerns the target T2, Adenosine receptor A2a. In words: Displacement of [3H]ZM241385 from human recombinant adenosine A2A receptor expressed in CHO cells by liquid scintillation counting. It counts as cell-based.
The target in assay [9] is T2, Adenosine receptor A2a. The experiment in a line: Displacement of [3H]CGS21680 from human recombinant adenosine A2A receptor expressed in CHO cells by liquid scintillation counting. It is filed as cell-based.
Assay [10] has as its target T2, Adenosine receptor A2a. Conditions: CHO.
Description: Dissociation of [3H]ZM241385 from human adenosine A2A receptor expressed in CHO cells at 100 uM by liquid scintillation counting relative to control
Assay [11] addresses T2, Adenosine receptor A2a. Conditions: CHO. This is another data set of the same source.
Description: Displacement of [3H]ZM241385 from human adenosine A2A receptor expressed in CHO cells assessed as time course of dissociation at 10 uM by liquid scintillation counting relative to control
Assay [12] has as its system Aorta. In words: Vasorelaxation activity in Wistar rat endothelium-intact aortic ring assessed as inhibition of noradrenaline-induced contraction after 20 mins. Conditions: read-out: pIC50 (converted).
Assay [13] deals with Aorta. The experiment in a line: Vasorelaxation activity in Wistar rat endothelium-intact aortic ring assessed as inhibition of noradrenaline-induced contraction at 10 uM after 20 mins. It counts as functional.
Assay [14] concerns Aorta. The experiment in a line: Potentiation of CGS-21680-induced vasorelaxation activity in Wistar rat endothelium-intact aortic ring assessed as inhibition of noradrenaline-induced contraction at 10 uM after 20 mins. It is filed as functional.
For assay [15], the system named is Aorta. The experiment in a line: tissue or blood. Conditions: Rattus norvegicus, Wistar, 20 min, read-out: pIC50 (converted).
A further assay addresses T5, Adenosine receptor A3 (Homo sapiens, UniProt P0DMS8).
T5 sequence (P0DMS8 whole entry): T3 sequence (whole entry)
In words: Displacement of [3H]NECA from human recombinant adenosine A3 receptor expressed in CHO cells by liquid scintillation counting. It counts as cell-based.

As usually defined, the EC50 is the midpoint of the concentration-response curve. A word on the Ki: it is the dissociation constant of the complex between target and ligand, obtained from inhibition or displacement. What is called Emax is the maximal effect, on the per cent scale that the assay sets.

For `O=C(Nc1ccccc1)Nc1ccc(Nc2nc(-c3ccccc3)nc3c2ncn3Cc2ccccc2)cc1`, the Activity is 101% in assay [1]; 73% in assay [2]; 107% at Adenosine receptor A2a [3]; 74% at Adenosine receptor A2a [4]; 53% in [5].
Regarding `Nc1ccc(Nc2nc(-c3ccccc3)nc3c2nnn3Cc2ccccc2)cc1`, the Activity in assay [1] worked out at 33%; in assay [2] it was 4%; at Adenosine receptor A2a [3], 77%; on Adenosine receptor A2a [4], 0%; in assay [5], 49%. For the same compound, the EC50 at Adenosine receptor A1 [6] is 750 nM; at Adenosine receptor A2a [8] it was 9740 nM. In addition, the Ki at Adenosine receptor A1 [6] was found to be 132 nM; on Adenosine receptor A1 [7] it was 103 nM; at Adenosine receptor A2a [8] it was 1300 nM; at Adenosine receptor A2a [9], 280 nM. Further, at Adenosine receptor A2a [10], the Kdiss came out at 0.078 s⁻¹. For the same compound, the T1/2 at Adenosine receptor A2a [11] stood at 8.89 s.
Regarding `CCNC(=O)[C@H]1O[C@@H](n2cnc3c(N)nc(NCCc4ccc(CCC(=O)O)cc4)nc32)[C@H](O)[C@@H]1O` [CGS-21680], the results for the IC50 in the assay with Aorta [12] and in the assay on Aorta [15] were 263 nM and 69.2 nM, respectively. The maximal effect (Emax) at 10 µM in the assay with Aorta [13] came out at 76%; in the assay on Aorta [14], 91%.
As to `O=C(Nc1ccc(F)cc1)Nc1ccc(Nc2nc(-c3ccccc3)nc3c2ncn3Cc2ccccc2)cc1`, the Activity in assay [1] came to 105%; in assay [2], 85%; at Adenosine receptor A2a [3], 111%; at Adenosine receptor A2a [4] it was 83%; in assay [5], 70%.
As to `COc1ccc(NC(=O)Nc2ccc(Nc3nc(-c4ccccc4)nc4c3nnn4Cc3ccccc3)cc2)cc1`, the Activity was determined as 105% in assay [1]; 74% in [2]; 142% at Adenosine receptor A2a [3]; 59% at Adenosine receptor A2a [4]; 58% in [5].
The corresponding values for `O=C(Nc1ccc(Nc2nc(-c3ccccc3)nc3c2nnn3Cc2ccccc2)cc1)Nc1ccc(C(F)(F)F)cc1` are 94%, 74%, 127%, 180% and 72%.
As for `O=C(Nc1ccccc1)Nc1ccc(Nc2nc(-c3ccccc3)nc3c2nnn3Cc2ccccc2)cc1`, the Activity in assay [1] is 110%; in [2], 79%; on Adenosine receptor A2a [3], 133%; at Adenosine receptor A2a [4], 57%; in assay [5], 78%.
Consider `COc1ccc(NC(=O)Nc2ccc(Nc3nc(-c4ccccc4)nc4c3ncn4Cc3ccccc3)cc2)cc1`, for which the Activity in assay [1] came to 107%; in assay [2], 68%; at Adenosine receptor A2a [3], 166%; on Adenosine receptor A2a [4] it was 120%; in assay [5], 56%.
For `Nc1ccc(Nc2nc(-c3ccccc3)nc3c2ncn3Cc2ccccc2)cc1`, the Activity in assay [1] came to 46%; in assay [2], 7%; on Adenosine receptor A2a [3] it was 59%; at Adenosine receptor A2a [4] it was 44%; in assay [5], 56%. In addition, the Ki is 396 nM at Adenosine receptor A1 [6], 294 nM on Adenosine receptor A1 [7], 5740 nM on Adenosine receptor A2a [8] and 4170 nM at Adenosine receptor A2a [9].
On to `O=[N+]([O-])c1ccc(Nc2nc(-c3ccccc3)nc3c2ncn3Cc2ccccc2)cc1`, for which the Activity was found to be 84% in assay [1]; 2% in assay [2]; 84% at Adenosine receptor A2a [3]; 114% on Adenosine receptor A2a [4]; 51% in assay [5]. For the same compound, the figures for the Ki on Adenosine receptor A1 [6], at Adenosine receptor A1 [7] and at Adenosine receptor A2a [8] were 699 nM, 571 nM and 1900 nM, respectively.
As for `O=C(Nc1ccc(F)cc1)Nc1ccc(Nc2nc(-c3ccccc3)nc3c2nnn3Cc2ccccc2)cc1`, the Activity was determined as 107% in assay [1]; 72% in [2]; 167% on Adenosine receptor A2a [3]; 176% at Adenosine receptor A2a [4]; 92% in assay [5]. Moreover, the EC50 turned out to be 16000 nM on Adenosine receptor A2a [8] and 9950 nM at Adenosine receptor A2a [9]. The compound also had a Kdiss at Adenosine receptor A2a [10] of 0.052 s⁻¹. Moreover, the T1/2 on Adenosine receptor A2a [11] worked out at 13.2 s.
`O=C(Nc1ccc(Nc2nc(-c3ccccc3)nc3c2ncn3Cc2ccccc2)cc1)Nc1ccc(C(F)(F)F)cc1`: the Activity in [1] was found to be 106%; in [2] it was 67%; at Adenosine receptor A2a [3], 149%; on Adenosine receptor A2a [4], 57%; in assay [5], 37%. Further, at Adenosine receptor A3, the Ki was 5610 nM.
Consider `O=[N+]([O-])c1ccc(Nc2nc(-c3ccccc3)nc3c2nnn3Cc2ccccc2)cc1`, for which the Activity in assay [1] was 105%; in [2], 33%; on Adenosine receptor A2a [3], 98%; at Adenosine receptor A2a [4], 96%; in assay [5], 58%.

The values above are taken from ChEMBL document CHEMBL1141671, “N6-1,3-diphenylurea derivatives of 2-phenyl-9-benzyladenines and 8-azaadenines: synthesis and biological evaluation as allosteric modulators of A2A adenosine receptors” (Eur J Med Chem, 2008).
